Several values for one entry are separate records, joined by “and”; a condition that tells them apart may be missing. Equal entries are not always repeated. Structures can show the parent of a compound that is named as a salt.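 Cells were grown in 96-well plates and exposed to each compound for 48 hours at five concentrations; endpoints were interpolated linearly between bracketing concentrations, or set to the highest concentration if not reached. GI50: concentration for 50% inhibition of growth.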 Activity calls are given as the source filed them. No stated cut-off is given here; in the data, active = GI50 up to about 1.1 µM and inactive = higher.
Assays:
Assay in all cases: inhibition of tumour cell growth, NCI panel, 48 h
A549 = system: A549
CAKI-1 = system: CAKI-1
COLO 205 = system: COLO 205
EKVX = system: EKVX
HCT-116 = system: HCT-116
RXF 393 = system: RXF 393
SF-268 = system: SF-268
SF-295 = system: SF-295
SK-MEL-5 = system: SK-MEL-5
SK-OV-3 = system: SK-OV-3
SN12C = system: SN12C
SNB-75 = system: SNB-75
TK-10 = system: TK-10
UACC-62 = system: UACC-62
HOP-92 = system: HOP-92
DLD-1 = system: DLD-1
DMS-273 = system: DMS-273
HOP-18 = system: HOP-18
KM-20L2 = system: KM-20L2
XF498 = system: XF498

| Compound | GI50 (A549) | GI50 (CAKI-1) | GI50 (COLO 205) | GI50 (EKVX) | GI50 (HCT-116) | GI50 (RXF 393) | GI50 (SF-268) | GI50 (SF-295) | GI50 (SK-MEL-5) | GI50 (SK-OV-3) | GI50 (SN12C) | GI50 (SNB-75) | GI50 (TK-10) | GI50 (UACC-62) | GI50 (HOP-92) | GI50 (DLD-1) | GI50 (DMS-273) | GI50 (HOP-18) | GI50 (KM-20L2) | GI50 (XF498) |
| --- | --- | --- | --- | --- | --- | --- | --- | --- | --- | --- | --- | --- | --- | --- | --- | --- | --- | --- | --- | --- |
| COc1ccc(N2C(=O)C3c4[nH]c5cc(C)ccc5c4C4CCC(C(C)(C)C)CC4C3C2=O)cc1 (stereo not drawn) | > 10 µM (inactive) | > 10 µM (inactive) | > 10 µM (inactive) | 9.1 µM (inactive) | > 10 µM (inactive) | > 10 µM (inactive) | 5.75 µM (inactive) | 7.08 µM (inactive) | > 10 µM (inactive) | > 10 µM (inactive) | > 10 µM (inactive) | 2.59 µM (inactive) | > 10 µM (inactive) | 6.19 µM (inactive) |  |  |  |  |  |  |
| O=C(O)CN1CCCC(Cc2c[nH]c3ccccc23)C1 (stereo not drawn) | > 100 µM (inactive) | > 100 µM (inactive) | > 100 µM (inactive) | > 100 µM (inactive) |  | > 100 µM (inactive) | > 100 µM (inactive) | > 100 µM (inactive) | > 100 µM (inactive) | > 100 µM (inactive) |  | > 100 µM (inactive) | > 100 µM (inactive) | > 100 µM (inactive) | > 100 µM (inactive) |  |  |  |  |  |
| CCOC(=O)CNC(=O)N(CC)C12CC3CC(CC(C3)C1)C2 | 166 µM (inactive) | 147 µM (inactive) | 110 µM (inactive) | 157 µM (inactive) | 121 µM (inactive) | 152 µM (inactive) | 143 µM (inactive) | 136 µM (inactive) | 104 µM (inactive) | 123 µM (inactive) | 147 µM (inactive) | 131 µM (inactive) |  | 97.5 µM (inactive) | 60.1 µM (inactive) | 34.7 µM (inactive) | 132 µM (inactive) | 179 µM (inactive) | 117 µM (inactive) | 125 µM (inactive) |
| O=C1c2cccc3cc4ccccc4c(c23)C(=O)N1CCNCCN1C(=O)c2cccc3cc4ccccc4c(c23)C1=O | 0.186 µM (active) | 0.245 µM (active) | 0.731 µM (active) | 0.587 µM (active) | 0.415 µM (active) | 0.525 µM (active) | 1.22 µM (inactive) | 0.243 µM (active) | 0.504 µM (active) | 1.34 µM (inactive) | 0.306 µM (active) | 0.373 µM (active) |  | 0.318 µM (active) | 0.449 µM (active) | 0.714 µM (active) | 0.277 µM (active) | 0.231 µM (active) | 0.518 µM (active) | 0.254 µM (active) |
| O=C1C[C@H](c2ccccc2)C2(C(=O)c3ccccc3C2=O)[C@@H](c2ccccc2)C1 |  | 7.59 µM (inactive) | 18.4 µM (inactive) |  |  | 6.04 µM (inactive) |  | 25.6 µM (inactive) | 16.9 µM (inactive) | 21.2 µM (inactive) | 24.2 µM (inactive) | 28.4 µM (inactive) |  | 11.8 µM (inactive) | 13.6 µM (inactive) |  |  |  |  |  |
| CC1OC(OC2C(OC(=O)[C@@H]3CC(C)(C)C[C@H]4C5=CC[C@@H]6[C@@]7(C)C[C@H](O)[C@H](OC8OC(CO)C(O)C(O)C8O)[C@@](C)(CO)[C@@H]7[C@H](O)C[C@@]6(C)[C@]5(C)CC[C@@]34C)OCC(O)C2O)C(O)C(O)C1O (stereo partly drawn) |  | > 7.5 µM (inactive) | > 7.5 µM (inactive) | > 7.5 µM (inactive) | > 7.5 µM (inactive) | > 7.5 µM (inactive) | > 7.5 µM (inactive) | > 7.5 µM (inactive) | > 7.5 µM (inactive) | > 7.5 µM (inactive) | > 7.5 µM (inactive) | > 7.5 µM (inactive) | > 7.5 µM (inactive) | > 7.5 µM (inactive) | > 7.5 µM (inactive) |  |  |  |  |  |
| CC1=C(C(=O)N[C@@H](CC(C)C)C(=O)O)N2C(=O)[C@@H](NC(=O)C(N)c3ccccc3)[C@H]2SC1 (stereo partly drawn) | > 100 µM (inactive) | > 100 µM (inactive) | > 100 µM (inactive) | > 100 µM (inactive) |  | > 100 µM (inactive) | > 100 µM (inactive) | > 100 µM (inactive) | > 100 µM (inactive) |  | > 100 µM (inactive) | > 100 µM (inactive) | > 100 µM (inactive) | 79.3 µM (inactive) | > 100 µM (inactive) |  |  |  |  |  |
| CC1CC2C3CC(F)C4=CC(=O)C=CC4(C)C3(F)C(O)CC2(C)C1(O)C(=O)COC(=O)C(C)(C)C (stereo not drawn) | 54.6 µM (inactive) | > 100 µM (inactive) | > 100 µM (inactive) | > 100 µM (inactive) | > 100 µM (inactive) | 18.7 µM (inactive) | 64.4 µM (inactive) | 61.7 µM (inactive) | > 100 µM (inactive) |  |  | 82.2 µM (inactive) | 77.1 µM (inactive) | > 100 µM (inactive) | > 100 µM (inactive) | > 100 µM (inactive) | > 100 µM (inactive) |  | > 100 µM (inactive) | > 100 µM (inactive) |
| O=C1c2ccccc2C(=O)c2c1ccc1c2N=C(c2ccc(F)cc2)CC(c2ccc(Cl)c(Cl)c2)N1 (stereo not drawn) | 18.4 µM (inactive) | 3.27 µM (inactive) | 18.1 µM (inactive) | 3.96 µM (inactive) | 11.5 µM (inactive) |  | 15.2 µM (inactive) | 14.6 µM (inactive) | 15.6 µM (inactive) | 12.7 µM (inactive) | 17.3 µM (inactive) | 20.5 µM (inactive) | 13.8 µM (inactive) | 12.1 µM (inactive) | 22.7 µM (inactive) | 12.9 µM (inactive) |  |  | 15.7 µM (inactive) |  |
| NC(=O)Nc1cc(O)ccc1/N=N/c1ccc(S(=O)(=O)Nc2ccccn2)cc1 | > 100 µM (inactive) | > 100 µM (inactive) | > 100 µM (inactive) | > 100 µM (inactive) | > 100 µM (inactive) |  | > 100 µM (inactive) | > 100 µM (inactive) | > 100 µM (inactive) | > 100 µM (inactive) | > 100 µM (inactive) | > 100 µM (inactive) | > 100 µM (inactive) | > 100 µM (inactive) | > 100 µM (inactive) |  | > 100 µM (inactive) | > 100 µM (inactive) | > 100 µM (inactive) | > 100 µM (inactive) |
| Nc1c(Cl)c([N+](=O)[O-])cc2c1OCCCCO2 | > 100 µM (inactive) | 56.4 µM (inactive) | > 100 µM (inactive) | 61.8 µM (inactive) | > 100 µM (inactive) | > 100 µM (inactive) | > 100 µM (inactive) | > 100 µM (inactive) | 44.9 µM (inactive) | 18.3 µM (inactive) | > 100 µM (inactive) | 23.8 µM (inactive) | > 100 µM (inactive) | 95.5 µM (inactive) | 38.4 µM (inactive) |  |  |  |  |  |
| COc1ccc(/C=C2\Oc3cc(OC(C)=O)ccc3C2=O)cc1 | > 100 µM (inactive) | 21.1 µM (inactive) | > 100 µM (inactive) | > 100 µM (inactive) | > 100 µM (inactive) | > 100 µM (inactive) | > 100 µM (inactive) | > 100 µM (inactive) | > 100 µM (inactive) | > 100 µM (inactive) | > 100 µM (inactive) | > 100 µM (inactive) | > 100 µM (inactive) | > 100 µM (inactive) |  |  |  |  |  |  |
| COC(=O)C1=CC[C@@H]2C(C(=O)O)=CO[C@@H](OC3OC(CO)C(O)C(O)C3O)[C@H]12 (stereo partly drawn) | > 300 µM (inactive) | > 300 µM (inactive) | > 300 µM (inactive) | > 300 µM (inactive) | > 300 µM (inactive) | > 300 µM (inactive) | > 300 µM (inactive) | > 150 µM (inactive) | > 151 µM (inactive) | > 300 µM (inactive) | > 300 µM (inactive) | > 300 µM (inactive) |  | > 300 µM (inactive) | > 110 µM (inactive) | > 189 µM (inactive) | > 300 µM (inactive) | 13.7 µM (inactive) | > 300 µM (inactive) | > 228 µM (inactive) |
| COc1cc(OC)c(SSCCCCS(=O)O)c(OC)c1 | 19 µM (inactive) | > 10 µM (inactive) | 17.5 µM (inactive) | 13.7 µM (inactive) | 16.3 µM (inactive) | 14.5 µM (inactive) | 15.5 µM (inactive) | 13.6 µM (inactive) | 10.4 µM (inactive) | 23.8 µM (inactive) | 17.6 µM (inactive) | 10.6 µM (inactive) | 21.3 µM (inactive) | 13.7 µM (inactive) |  | 17.5 µM (inactive) | 16.7 µM (inactive) | 18 µM (inactive) | 18.7 µM (inactive) | 13.9 µM (inactive) |
| O=C1/C(=C/c2ccc(Cl)cc2)CNC/C1=C\c1ccc(Cl)cc1 | 4.76 µM (inactive) | 1.58 µM (inactive) | 2.14 µM (inactive) |  | 0.83 µM (active) |  | 1.51 µM (inactive) |  | 4.44 µM (inactive) | 12.1 µM (inactive) | 2.59 µM (inactive) | 4.36 µM (inactive) | 3.95 µM (inactive) | 2.43 µM (inactive) |  |  |  |  |  |  |
| Nc1ccc2cc3ccc(N)cc3nc2c1 [PROFLAVINE SULFATE] |  | 2.18 µM (inactive) and 1.82 µM (inactive) | 561 nM (active) and 543 nM (active) | 1.24 µM (inactive) | 366 nM (active) and 405 nM (active) |  | 1.32 µM (inactive) and 2.19 µM (inactive) | 2.45 µM (inactive) and 1.94 µM (inactive) | 1.61 µM (inactive) and 1.38 µM (inactive) |  | 843 nM (active) and 1.04 µM (active) | 1.59 µM (inactive) and 1.16 µM (inactive) | 2.7 µM (inactive) and 4.33 µM (inactive) | 1.56 µM (inactive) and 1.6 µM (inactive) | 1.45 µM (inactive) and 2.49 µM (inactive) | 0.771 µM (active) | 0.839 µM (active) | 2.76 µM (inactive) | 0.767 µM (active) | 1.53 µM (inactive) |

Reference: ChEMBL document CHEMBL1201862, “PubChem BioAssay data set” (2004)
